# Experimental data from ChEMBL document CHEMBL1201862, “PubChem BioAssay data set” (2004).
#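 Following 48 hours of exposure in 96-well plates, responses at five concentrations were used to interpolate endpoints linearly. The concentration for 50% growth inhibition is given as GI50.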 Active and inactive are the calls of the source. Cut-off read from the data, not from the text of the source: active = GI50 up to about 1.1 µM and inactive = higher.
# Experiments:
# Test in all cases: growth of human tumour cells (NCI), 48 h
# EKVX = test system: EKVX
# SF-295 = test system: SF-295
# OVCAR-3 = test system: OVCAR-3
# MDA-MB-435 = test system: MDA-MB-435
# HL-60 = test system: HL-60
# K562 = test system: K562
# A549 = test system: A549
# MOLT-4 = test system: MOLT-4
# SN12C = test system: SN12C
# T47D = test system: T47D
# SF-268 = test system: SF-268
# NCI-H23 = test system: NCI-H23
# M14 = test system: M14
# DU-145 = test system: DU-145
# TK-10 = test system: TK-10
# HT-29 = test system: HT-29
# LOX IMVI = test system: LOX IMVI
# BT-549 = test system: BT-549
# SW-620 = test system: SW-620
# HCT-15 = test system: HCT-15
# MCF7 = test system: MCF7
# NCI/ADR-RES = test system: NCI/ADR-RES
# UACC-62 = test system: UACC-62
# Malme-3M = test system: Malme-3M
# UACC-257 = test system: UACC-257
# NCI-H522 = test system: NCI-H522
# SF-539 = test system: SF-539
# HOP-62 = test system: HOP-62
# U-251 = test system: U-251
# MDA-MB-231 = test system: MDA-MB-231
# ACHN = test system: ACHN
# RXF 393 = test system: RXF 393
# OVCAR-5 = test system: OVCAR-5
# Hs-578T = test system: Hs-578T
# SK-OV-3 = test system: SK-OV-3
# CCRF-CEM = test system: CCRF-CEM
# HOP-92 = test system: HOP-92
# HCC 2998 = test system: HCC 2998
# NCI-H460 = test system: NCI-H460
# A498 = test system: A498
# IGROV-1 = test system: IGROV-1
# MDA-N = test system: MDA-N
# OVCAR-8 = test system: OVCAR-8
# KM12 = test system: KM12
# SNB-19 = test system: SNB-19
# HCT-116 = test system: HCT-116
# 786-0 = test system: 786-0
# SK-MEL-2 = test system: SK-MEL-2
# SK-MEL-28 = test system: SK-MEL-28
# PC-3 = test system: PC-3
# NCI-H226 = test system: NCI-H226
# RPMI-8226 = test system: RPMI-8226
# SNB-75 = test system: SNB-75
# COLO 205 = test system: COLO 205
# CAKI-1 = test system: CAKI-1
# OVCAR-4 = test system: OVCAR-4
compound,measurement,setting,value
O=C(N/N=C(COc1ccc(Cl)cc1)\N=C\c1cccnc1)c1ccncc1,GI50,EKVX,> 100 µM (inactive)
same,GI50,SF-295,> 100 µM (inactive)
same,GI50,OVCAR-3,> 100 µM (inactive)
same,GI50,MDA-MB-435,26.3 µM (inactive)
same,GI50,HL-60,> 100 µM (inactive)
same,GI50,K562,64.4 µM (inactive)
same,GI50,A549,> 100 µM (inactive)
same,GI50,MOLT-4,84.3 µM (inactive)
same,GI50,SN12C,> 100 µM (inactive)
same,GI50,T47D,> 100 µM (inactive)
same,GI50,SF-268,63.8 µM (inactive)
same,GI50,NCI-H23,> 100 µM (inactive)
same,GI50,M14,> 100 µM (inactive)
same,GI50,DU-145,> 100 µM (inactive)
same,GI50,TK-10,> 100 µM (inactive)
same,GI50,HT-29,> 100 µM (inactive)
same,GI50,LOX IMVI,> 100 µM (inactive)
same,GI50,BT-549,> 100 µM (inactive)
same,GI50,SW-620,> 100 µM (inactive)
same,GI50,HCT-15,85.9 µM
same,GI50,MCF7,> 100 µM (inactive)
same,GI50,NCI/ADR-RES,57.4 µM (inactive)
same,GI50,UACC-62,69 µM (inactive)
same,GI50,Malme-3M,49.7 µM (inactive)
same,GI50,UACC-257,99.5 µM (inactive)
same,GI50,NCI-H522,23.5 µM (inactive)
same,GI50,SF-539,57.3 µM (inactive)
same,GI50,HOP-62,> 100 µM (inactive)
same,GI50,U-251,> 100 µM (inactive)
same,GI50,MDA-MB-231,> 100 µM (inactive)
same,GI50,ACHN,> 100 µM (inactive)
same,GI50,RXF 393,77.3 µM (inactive)
same,GI50,OVCAR-5,> 100 µM (inactive)
same,GI50,Hs-578T,23.7 µM (inactive)
same,GI50,SK-OV-3,> 100 µM (inactive)
same,GI50,CCRF-CEM,> 100 µM (inactive)
same,GI50,HOP-92,24.2 µM (inactive)
same,GI50,HCC 2998,88.1 µM (inactive)
same,GI50,NCI-H460,> 100 µM (inactive)
same,GI50,A498,52.6 µM (inactive)
same,GI50,IGROV-1,> 100 µM (inactive)
same,GI50,MDA-N,25.5 µM (inactive)
same,GI50,OVCAR-8,89.1 µM (inactive)
same,GI50,KM12,71 µM (inactive)
same,GI50,SNB-19,> 100 µM (inactive)
same,GI50,HCT-116,> 100 µM (inactive)
same,GI50,786-0,> 100 µM (inactive)
same,GI50,SK-MEL-2,> 100 µM (inactive)
same,GI50,SK-MEL-28,> 100 µM (inactive)
same,GI50,PC-3,> 100 µM (inactive)
same,GI50,NCI-H226,68.2 µM (inactive)
same,GI50,RPMI-8226,32.5 µM (inactive)
same,GI50,SNB-75,55.3 µM (inactive)
same,GI50,COLO 205,96.8 µM (inactive)
same,GI50,CAKI-1,> 100 µM (inactive)
same,GI50,OVCAR-4,> 100 µM (inactive)
